Results on 2 compounds are retold here after publication PMC2941879 (Bioorganic & medicinal chemistry, 2010).

Structures can show the parent of a compound that is named as a salt.

Experiment [1] deals with α2C receptors. Particulars: read-out: Affinity at α2C receptors; cited from earlier work.
The target of experiment [2] is cloned hD1 receptors (Homo sapiens, UniProt P21728). Nature of the experiment: Cyclic AMP accumulation assay. The format is cell-based.
Sequence of cloned hD1 receptors (P21728 whole entry): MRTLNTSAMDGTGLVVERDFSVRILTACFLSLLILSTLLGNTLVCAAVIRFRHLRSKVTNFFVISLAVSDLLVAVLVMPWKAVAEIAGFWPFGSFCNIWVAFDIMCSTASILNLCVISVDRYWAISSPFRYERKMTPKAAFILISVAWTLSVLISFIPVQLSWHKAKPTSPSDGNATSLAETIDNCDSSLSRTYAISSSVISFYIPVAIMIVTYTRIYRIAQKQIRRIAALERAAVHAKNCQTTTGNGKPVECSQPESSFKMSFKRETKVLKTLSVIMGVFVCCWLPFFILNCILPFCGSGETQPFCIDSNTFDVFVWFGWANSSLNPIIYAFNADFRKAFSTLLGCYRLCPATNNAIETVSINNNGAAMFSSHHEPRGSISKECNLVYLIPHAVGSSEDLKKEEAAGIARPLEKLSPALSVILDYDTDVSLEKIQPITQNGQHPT

With `Oc1cc2c(cc1O)C1c3ccccc3CNC1CO2` (centres unmarked) [DOX, doxanthrine], in experiment [1], the Ki was 2 nM.

For the compound `Oc1ccc2c(c1O)C[C@@H](c1ccccc1)[C@@H]1CCNC[C@@H]21` [compound 3, Trans-5-Phenyl-1,2,3,4,4a,5,6,10b-octahydrobenzo[h]isoquinoline-7,8-diol Hydrobromide], the “Agonist character at D1 receptors” value in experiment [2] is listed as “full agonist”.
